Test results: patent US20050239723A1, “Compositions and methods useful for treatment of acne” (priority 2004, published 2005)
Converted amounts (≈) assume the structure as drawn. Where two headings read alike, the source gives them in different places.

Experiments:
[1] = system: Propionibacterium acnes ATCC #11827; assay: Antimicrobial susceptibility testing (MIC) by the agar dilution method; format: cell-based; conditions: Cutibacterium acnes
[2] = system: patients with mild to moderate acne vulgaris; assay: Open label study of NV-02 in the topical treatment of mild to moderate acne vulgaris; format: in vivo, human; conditions: after topical NV-02 twice daily; varied between and within patients
Description: The results were from a study of twenty patients (5 males, 15 females) who were enrolled with varying ethnicity: Caucasian(12), African American (6), Hispanic (1), and Asian (1). The age range was from 20 to 48 years (mean 29.6 years). All subjects received open-label PCL-016 10% gel to be applied twice daily to the face over 12 weeks.
The experiment was performed as indicated for the per protocol analysis described under FIG. 1 above.
22, 2002 • Date of last completed: May 2, 2003 • Methodology: Open label study • Number of patients (planned and analyzed): 15 patients planned, 20 enrolled, 15 completed. • Diagnosis and main criteria for inclusion: mild to moderate acne vulgaris • Test product, dose and mode of administration, batch number: NV-02 applied twice daily to affected areas of the face; Novactyl lot number 155 • Duration of treatment: twice daily for 3 months • Criteria for evaluation: • Efficacy: Total lesion counts, inflammatory lesion count, non-inflammatory lesion count, and Cunliffe's grade, FDA scale • Safety: Adverse events, PCL-0 16 plasma levels, serum chemistry, complete blood count • Statistical Methods: descriptive statistics of patient population, patient demographics, and lesion counts, etc.; changes in lesion counts relative to baseline; percent reduction in lesion counts. […]

skin = assay: Cumulative irritation study (cream vehicle); format: in vivo; conditions: different (cream) vehicle
acne lesions = conditions: cited from earlier work

Structure (SMILES): CCCCc1ccc(C(=O)O)nc1 [fusaric acid]
- MIC ([1]; ATCC11827, read-out: Minimum Inhibitory Concentration (MIC): lowest concentration that visibly prevented growth): 100 µg/mL (≈ 558 µM)

Structure (SMILES): O=C(O)c1ccccn1 [Picolinic acid, pyridine-2-carboxylic acid]
- absorption into the systemic circulation (plasma levels) [2]: Small amounts
- risk of topical irritation to the skin (skin): low risk of topical irritation
- MIC ([1]; ATCC11827, P. acnes ATCC #11827, Supplemented Brucella agar with blood, 48-72 hours at 35±2° C., anaerobic, read-out: Minimum Inhibitory Concentration (MIC): lowest concentration that visibly prevented growth): 500 µg/mL (≈ 4060 µM)

Structure (SMILES): CC1=C(/C=C/C(C)=C/C=C/C(C)=C/C(=O)O)C(C)(C)CCC1 [Tretinoin]
- reduction of total lesions counts (acne lesions; topical agent on the market): 32-45%
- photosensitization (acne lesions; topical): photosensitizing
